Source: patent US8703701B2 (Indiana University Research and Technology Corporation, priority 2009, dated 2014)
Starred links: 1 amine or outer side, 2 acyl side, 3 side chain; linkers in the order of their positions; H or OH if unused. Non-standard residues stand in square brackets, D forms with d. Residues, ends and D or L forms follow the SMILES beside them. Groups on a side chain read outwards from the residue. No end group written: not given here. *: point of attachment. γGlu = O=C(O)[C@H](CCC(=O)[*:2])N[*:1]; Palmitoyl = CCCCCCCCCCCCCCCC(=O)*

Key:
glucagon receptor = molecular target: T1, glucagon receptor (Homo sapiens, UniProt P47871); experiment: cAMP induction, firefly luciferase reporter assay, glucagon receptor; type: cell-based; conditions: compared to native glucagon
T1 construct: expressed in transfected cells; host or cells: HEK293
T1 sequence (P47871 26-477): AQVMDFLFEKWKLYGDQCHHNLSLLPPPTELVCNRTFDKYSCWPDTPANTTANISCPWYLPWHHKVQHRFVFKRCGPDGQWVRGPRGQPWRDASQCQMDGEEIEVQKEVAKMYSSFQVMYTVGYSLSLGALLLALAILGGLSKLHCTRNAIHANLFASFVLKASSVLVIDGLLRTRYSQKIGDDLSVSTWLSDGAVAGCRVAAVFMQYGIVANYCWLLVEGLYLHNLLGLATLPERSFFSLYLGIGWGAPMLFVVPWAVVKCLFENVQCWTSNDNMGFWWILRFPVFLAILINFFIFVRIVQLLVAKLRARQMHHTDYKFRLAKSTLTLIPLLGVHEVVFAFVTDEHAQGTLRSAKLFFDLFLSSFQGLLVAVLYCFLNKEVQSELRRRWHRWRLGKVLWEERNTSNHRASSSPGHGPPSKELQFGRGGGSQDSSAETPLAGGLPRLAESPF
Experimental: (§1) The ability of each peptide to induce cAMP was measured in a firefly luciferase-based reporter assay.
(§2) At the end of the incubation, 100 μL of LucLite luminescence substrate reagent (Perkin Elmer, Wellesley, Mass.) were added to each well. The plate was shaken briefly, incubated 10 min in the dark and light output was measured on MicroBeta-1450 liquid scintillation counter (Perkin-Elmer, Wellesley, Mass.).

GLP-1 receptor = molecular target: T2, GLP-1 receptor (Homo sapiens, UniProt P43220); experiment: cAMP induction, firefly luciferase reporter assay, GLP-1 receptor; type: cell-based; conditions: for EC50: Activity at GLP-1 Receptor EC50 [nM]; for Activity at GLP-1 Receptor % Relative Activity: compared to native GLP-1
T2 construct: expressed in transfected cells; host or cells: HEK293
T2 sequence (P43220 24-463): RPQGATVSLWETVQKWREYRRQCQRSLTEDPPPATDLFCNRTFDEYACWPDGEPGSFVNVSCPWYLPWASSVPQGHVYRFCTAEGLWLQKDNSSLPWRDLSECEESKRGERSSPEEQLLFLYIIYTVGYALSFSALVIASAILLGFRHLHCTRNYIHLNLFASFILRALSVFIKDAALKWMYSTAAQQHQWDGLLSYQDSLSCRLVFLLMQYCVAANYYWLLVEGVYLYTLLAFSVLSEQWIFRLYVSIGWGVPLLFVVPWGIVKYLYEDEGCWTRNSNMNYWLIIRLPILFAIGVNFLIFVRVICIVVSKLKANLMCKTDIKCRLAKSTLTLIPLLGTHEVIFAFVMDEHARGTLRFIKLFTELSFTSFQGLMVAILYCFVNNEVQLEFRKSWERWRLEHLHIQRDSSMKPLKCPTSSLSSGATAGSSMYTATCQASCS
Experimental: as §1, §2

Activity at Glucagon Receptor % Relative Activity (glucagon receptor; Table 3C) [%]	EC50 (GLP-1 receptor; Table 3C) [nM]	Activity at GLP-1 Receptor % Relative Activity (GLP-1 receptor; Table 3C) [%]	Activity at Glucagon Receptor % Relative Activity (glucagon receptor; Table 2B) [%]	Activity at GLP-1 Receptor % Relative Activity (GLP-1 receptor; Table 2B) [%]	Molecule
1500	0.003	1200			CCCCCCCCCCCCCCCC(=O)N[C@@H](CCC(=O)NCCCC[C@H](NC(=O)[C@H](CC(=O)O)NC(=O)[C@H](CO)NC(=O)[C@@H](NC(=O)[C@H](Cc1ccccc1)NC(=O)[C@@H](NC(=O)CNC(=O)[C@H](CCC(N)=O)NC(=O)[C@@H](CO)NC(=O)[C@@H](N)Cc1c[nH]cn1)[C@@H](C)O)[C@@H](C)O)C(=O)N[C@@H](CO)C(=O)N[C@@H](CCCCN)C(=O)N[C@@H](Cc1ccc(O)cc1)C(=O)N[C@@H](CC(C)C)C(=O)N[C@@H](CC(=O)O)C(=O)N[C@@H](CCC(=O)O)C(=O)N[C@@H](CCC(N)=O)C(=O)N[C@@H](C)C(=O)N[C@@H](C)C(=O)N[C@@H](CCCCN)C(=O)N[C@@H](CCC(=O)O)C(=O)N[C@@H](Cc1ccccc1)C(=O)N[C@H](C(=O)N[C@@H](CS)C(=O)N[C@@H](Cc1c[nH]c2ccccc12)C(=O)N[C@@H](CC(C)C)C(=O)N[C@@H](CC(C)C)C(=O)N[C@@H](CC(=O)O)C(=O)N[C@H](C(=O)O)[C@@H](C)O)[C@@H](C)CC)C(=O)O [compound 76]
121	0.02	345			CCCCCCCCCCCCCCCC(=O)N[C@@H](CCC(=O)NCCCC[C@H](NC(=O)[C@H](CC(=O)O)NC(=O)[C@H](CO)NC(=O)[C@@H](NC(=O)[C@H](Cc1ccccc1)NC(=O)[C@@H](NC(=O)CNC(=O)[C@H](CCC(N)=O)NC(=O)[C@@H](CO)NC(=O)[C@@H](N)Cc1c[nH]cn1)[C@@H](C)O)[C@@H](C)O)C(=O)N[C@@H](CO)C(=O)N[C@@H](CCCCN)C(=O)N[C@@H](Cc1ccc(O)cc1)C(=O)N[C@@H](CC(C)C)C(=O)N[C@@H](CC(=O)O)C(=O)N[C@@H](CCC(=O)O)C(=O)N[C@@H](CCC(N)=O)C(=O)N[C@@H](C)C(=O)N[C@@H](C)C(=O)N[C@@H](CCCCN)C(=O)N[C@@H](CCC(=O)O)C(=O)N[C@@H](Cc1ccccc1)C(=O)N[C@H](C(=O)N[C@@H](CS)C(=O)N[C@@H](Cc1c[nH]c2ccccc12)C(=O)N[C@@H](CC(C)C)C(=O)N[C@@H](CC(C)C)C(=O)N[C@@H](CC(=O)O)C(=O)N[C@@H](CCC(=O)O)C(N)=O)[C@@H](C)CC)C(=O)O [compound 82] (H-H[dS]QGTFTSDK([γGlu-Palmitoyl])SKYLDEQAAKEFICWLLDE-NH2; N-terminus assumed)
61		288			CCCCCCCCCCCCCCCC(=O)N[C@@H](CCC(=O)NCCCC[C@H](NC(=O)[C@H](CC(=O)O)NC(=O)[C@H](CO)NC(=O)[C@@H](NC(=O)[C@H](Cc1ccccc1)NC(=O)[C@@H](NC(=O)CNC(=O)[C@H](CCC(N)=O)NC(=O)[C@@H](CO)NC(=O)[C@@H](N)Cc1c[nH]cn1)[C@@H](C)O)[C@@H](C)O)C(=O)N[C@@H](CO)C(=O)N[C@@H](CCCCN)C(=O)N[C@@H](Cc1ccc(O)cc1)C(=O)N[C@@H](CC(C)C)C(=O)N[C@@H](CC(=O)O)C(=O)N[C@@H](CCC(=O)O)C(=O)N[C@@H](CCC(N)=O)C(=O)N[C@@H](C)C(=O)N[C@@H](C)C(=O)N[C@@H](CCCCN)C(=O)N[C@@H](CCC(=O)O)C(=O)N[C@@H](Cc1ccccc1)C(=O)N[C@H](C(=O)N[C@@H](CS)C(=O)N[C@@H](Cc1c[nH]c2ccccc12)C(=O)N[C@@H](CC(C)C)C(=O)N[C@@H](CC(C)C)C(=O)N[C@@H](CC(=O)O)C(=O)N[C@H](C(=O)N[C@@H](CCC(=O)O)C(N)=O)[C@@H](C)O)[C@@H](C)CC)C(=O)O [compound 83]
			104	44	HSQGTFTSDYSKYLDERRAKEFVQWLMNT-NH2 [compound 68]
